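Interpolation was linear, between the two tested concentrations surrounding the appropriate level; five concentrations were tested over 48 hours in 96-well plates. TGI: total growth inhibition.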
Columns and labels:
Assay in all cases: NCI tumour cell line growth inhibition, 48 h
KM20L2 colon = test system: KM20L2 colon
RXF-631 renal = test system: RXF-631 renal
XF 498 CNS = test system: XF 498 CNS
SNB-78 CNS = test system: SNB-78 CNS
LXFL 529 NSCLC = test system: LXFL 529 NSCLC
M19-MEL melanoma = test system: M19-MEL melanoma
DMS 273 small cell lung = test system: DMS 273 small cell lung
MDA-N = test system: MDA-N
P388/ADR leukemia = test system: P388/ADR leukemia
SN12K1 renal = test system: SN12K1 renal
T-47D breast = test system: T-47D breast

SMILES | TGI (KM20L2 colon) [µM] | TGI (RXF-631 renal) [µM] | TGI (XF 498 CNS) [µM] | TGI (SNB-78 CNS) [µM] | TGI (LXFL 529 NSCLC) [µM] | TGI (M19-MEL melanoma) [µM] | TGI (DMS 273 small cell lung) [µM] | TGI (MDA-N) [µM] | TGI (P388/ADR leukemia) [µM] | TGI (SN12K1 renal) [µM] | TGI (T-47D breast) [µM]
COc1cc(C2c3cc4c(cc3[C@@H](OCCN(C)C)C3COC(=O)[C@H]23)OCO4)cc(OC)c1O (stereo partly specified) | 5.14 | 1.78 | 1.74 | > 100 | 31.7 | 3.17 | 0.632 |  |  |  | 
Nc1cc2[nH]cnc2c(=O)[nH]1 | > 300 |  | 29.4 | > 300 |  | > 300 | > 146 | > 300 | > 300 | > 300 | > 300
